Source: ChEMBL document CHEMBL1131759, “A mutational study of a Diels-Alderase catalytic antibody” (Bioorg Med Chem Lett, 1999)

Legend:
Format in all cases: ADME
[1] = Kinetic constant for the germline antibody
[2] = Kinetic constant for the Val91Tyr (39-A11)
[3] = Kinetic constant for the 39-A11 antibody
[4] = Kinetic constant for the SerL91Val (germline)

Km [1] | Km [2] | Km [3] | Km [4] | SMILES
450 µM | 420 µM | 740 µM | 740 µM | CC(=O)Nc1ccc(N2C(=O)C=CC2=O)cc1
1400 µM | 2100 µM | 1200 µM | 1200 µM | C=C/C=C/NC(=O)OCC(=O)O
